The values below come from patent publication US6680323B2, “Dihydropyrimidines and uses thereof” (Synaptic Pharmaceutical Corporation, priority 1998, dated 2004).

pKi: −log10 of the molar value. Where a name gives a salt, the structure may show the parent alone.

For this assay, the target named is T1, human α2a receptor (Homo sapiens, UniProt P08913).
T1 construct: expressed in transfected cells
T1 sequence (P08913 1-465): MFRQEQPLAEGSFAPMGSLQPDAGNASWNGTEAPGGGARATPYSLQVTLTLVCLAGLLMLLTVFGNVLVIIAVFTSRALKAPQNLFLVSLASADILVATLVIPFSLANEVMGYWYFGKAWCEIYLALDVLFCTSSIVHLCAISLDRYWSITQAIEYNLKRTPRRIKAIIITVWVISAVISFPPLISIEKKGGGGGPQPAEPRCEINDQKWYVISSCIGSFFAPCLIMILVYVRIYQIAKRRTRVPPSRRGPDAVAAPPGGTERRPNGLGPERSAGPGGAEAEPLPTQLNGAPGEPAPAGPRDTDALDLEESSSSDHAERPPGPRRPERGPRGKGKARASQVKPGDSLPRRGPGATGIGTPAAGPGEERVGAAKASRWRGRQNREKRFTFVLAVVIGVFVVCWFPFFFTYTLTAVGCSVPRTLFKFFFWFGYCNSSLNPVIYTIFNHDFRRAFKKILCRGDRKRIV
Kind of assay: Competition binding ([3H]rauwolscine) at cloned human α2a receptor. As to conditions: transfected LM(tk−) cells, [3H]rauwolscine 0.5 nM; read-out: Binding affinity hα2a. An excerpt: α2 Human Adrenergic Receptors
To determine the potency of α1 antagonists at the α2 receptors, LM(tk−) cell lines stably transfected with the genes encoding the α2a, α2b, and α2c receptors were used. The cell line expressing the α2a receptor is designated L-α2A, and was deposited on Nov. 6, 1992 under ATCC Accession No. CRL 11180. The cell line expressing the α2b receptor is designated L-NGC-α2B, and was deposited on Oct. 25, 1989 under ATCC Accession No. CRL10275. The cell line expressing the α2c receptor is designated L-α2C, and was deposited on Nov. 6, 1992 under ATCC Accession No. CRL-11181. All the cell lines were deposited with the American Type Culture Collection, 12301 Parklawn Drive, Rockville, Md. 20852, U.S.A. under the provisions of the Budapest Treaty for the International Recognition of the Deposit of Microorganisms for the Purposes of Patent Procedure. Cell lysates were prepared as described above (see Radioligand Binding Assays), and suspended in 25 mM glycylglycine buffer (pH 7.6 at room temperature). Equilibrium competition binding assay were performed using [3H]rauwolscine (0.5 nM), and nonspecific binding was determined by incubation with 10 μM phentolamine. The bound radioligand was separated by filtration through GF/B filters using a cell harvester.
For `O=C1OCC2=C1C(c1ccc(F)c(F)c1)N(C(=O)NCCCN1CCC(c3ccccn3)CC1)C(=O)N2` (single isomer, unassigned; (+)) [Compound 8, (+)-1-3-{[4-(3,4-Difluorophenyl)-2,5-dioxo-1,2,5,7-tetrahydro-4H-furo[3,4-d]-pyrimidine-3-carbonyl]amino}-propyl-4-(2-pyridyl)-piperidine], the pKi was 5.82. The same measure for `COCC1=C(C(=O)OC)[C@H](c2ccc(F)c(F)c2)N(C(=O)NCCCO)C(=O)N1` [Compound 1, (+)-1,2,3,6-Tetrahydro-1-(3-hydroxypropyl)carboxamido-5-methoxycarbonyl-4-methoxymethyl-6-(3,4-difluorophenyl)-2-oxo-pyrimidine]: 4.40. In the case of `COCC1=C(C(=O)OC)[C@H](c2ccc(F)c(F)c2)N(C(=O)NCCCN2CCC(c3cccc[n+]3[O-])CC2)C(=O)N1` [Compound 2, (+)-1,2,3,6-Tetrahydro-1-{N-[4-(2-pyridyl)piperidin-1-yl]propyl}carboxamido-5-methoxycarbonyl-4-methoxymethyl-6-(3,4-difluorophenyl)-2-oxopyrimidine-pyridine-N-oxide hydrochloride], the pKi was 5.38. The figure for `COCC1=C(C(=O)OC)[C@H](c2ccc(F)c(F)c2)N(C(=O)NCCC[n+]2ccc(-c3ccccn3)cc2)C(=O)N1` [Compound 3, 4-(2-Pyridyl)-1-{3-[5-carboxymethyl-4-methoxymethyl-2-oxo-6(S)-(3,4-difluorphenyl)-1,2,3,6-tetrahydropyrimidin-1-yl]carboxyaminopropyl}pyridinium chloride] is 5.25; for `COC(=O)C1=C(CO)NC(=O)N(C(=O)NCCCN2CCC(c3ccccn3)CC2)[C@H]1c1ccc(F)c(F)c1` [Compound 7, (+)-1,2,3,6-Tetrahydro-1-{N-[4-(2-pyridyl)piperidin-1-yl]propyl}carboxamido-5-methoxycarbonyl-4-hydroxymethyl-6-(3,4-difluorophenyl)-2-oxopyrimidine] it is 6.42; for `O=C(O)CCNC(=O)N1C(=O)NC2=C(C(=O)OC2)[C@@H]1c1ccc(F)c(F)c1` [Compound 9] it is less than 4.30.
